In US10266857B2, “Method for producing Nε-acyl-L-lysine” (AJINOMOTO CO., INC., priority 2015, dated 2019):

B1: RmELA: amidohydrolase native to Rhodothermus marinus (NCBI; WP_012844854.1, SEQ ID NO: 1), Nε-acyl-L-lysine-specific aminoacylase (protein, listed as Rhodothermus marinus)
chain: MLLLPMQARGQADYVLVNGRLYTVDPAQPVAEAMAVRGDRILMVGTTAQLTAAYPDAPHIDLQGRAVVPGFIDAHAHLMGLGLSRLRADLTGTRSVEEILERLREFARQLPEGAWLLGRGWDQNDWPVKEFPTRQMLDEIFPERPVWLVRIDGHAAWANTAAIRRANPALLTEQIPDPEGGHIVRDAEGRLTGVFIDEAMDLIARHIPPPSEAELEEALRRAVAEANRFGLTGVHDAGASLKTIQGYRRAVDDGTLTLRLYVMVDGLGEAFDYFCEHGPLLDYGGRLTVRSVKFYIDGALGSRGAALLADYSDDPGNRGLLRHEPEVFADMVQRAMKCGFQVNTHAIGDRGVRVVLDAYEKALRTLGRTVGRHRVEHAQVVAPEDFARFAELDLIASMQPTHATSDMYWAEDRLGPERVRGAYAWRTFLEHGVRLAFGSDFPVELANPLLGFYAAITRQDAEGWPEGGWYPEQRLTREEALRAFTLDAAYAAFQEHELGSLTPGKYADFVVLSHDIMTVPPEQILQTRVLATFFGGRCVYHDPEAAGLCPASP

Experiments:
RmELA = test: Acyl lysine hydrolysis (substrate specificity of purified RmELA); type: biochemical, Rhodothermus marinus; settings: for hydrolysis (degradation) activity of the enzyme for the acyl lysine, in words: 4 mM substrate, pH 7.0, 37° C.; for Hydrolysis activity: acyl lysine 4 mM, 100 mM Tris-HCl (pH 7.0), 37° C., 1 U = 1 μmol lysine per 1 minute
Protocol: To look into the substrate specificity of the acyl lysine hydrolysis of this enzyme, the reactivity of the enzyme as described herein for various kinds of acyl lysines was examined. […] Activity measurement was performed with the various kinds of acyl lysines (4 mM) and 100 mM Tris-HCl (pH 7.0) at 37° C., and the activity was calculated by measuring the concentration of lysine produced along with the degradation of the acyl lysines. For the measurement of L-lysine, BF-5 and a lysine electrode (manufactured by Oji Scientific Instruments Co., Ltd.) was used, whereas for the measurement of D-lysine, an amino acid analyzer (manufactured by Hitachi, Ltd.) was used. Here, 1 U was defined as an enzyme amount that releases 1 μmol lysine from each of the acyl lysines (per 1 minute).

[1] = Synthesis reaction of Nε-octanoyl-L-lysine by RmELA enzymatic solution, L-lysine consumption; type: biochemical
Protocol: Using the RmELA enzymatic solution prepared by the method described in Example 7, the synthesis reaction of Nε-octanoyl-L-lysine was carried out. A 100 ml of a reaction solution was prepared so as to give final concentrations of 300 mmol/L octanoic acid, 300 mmol/L L-lysine hydrochloride, 0.1 mmol/L ZnSO4, and 2.1 U/ml the RmELA enzymatic solution and was stirred at 300 rpm using a 200 ml jar fermenter. The pH was adjusted to be 7.0 using 1 N of NaOH, and the reaction temperature was adjusted to be 50° C.
During the reaction, the reaction solution was sampled over time, and an L-lysine concentration within the reaction solution was measured. […] When the reaction solution after 23 hours was analyzed by HPLC, Nε-octanoyl-L-lysine was produced by 80% in terms of yield relative to L-lysine. […] No peak of Nα-octanoyl-L-lysine was detected.
The substrate (octanoic acid and L-lysine hydrochloride) final concentration in the reaction condition was changed to (1) 500 mmol/L, (2) 750 mmol/L, and (3) 1,000 mmol/L to carry out the synthesis reaction of Nε-octanoyl-L-lysine.
During the reaction, the reaction solution was sampled over time, and an L-lysine concentration in the reaction solution was measured. […] Respective consumption rates relative to the charged L-lysine and reaction times were (1) 87% after 35 hours, (2) 92% after 35 hours, and (3) 94% after 57 hours.

[2] = Synthesis reaction of Nε-dodecanoyl-L-lysine, L-lysine consumption; type: biochemical; settings: 300 mmol/L substrates, 3 U/ml, after 24 hours
Protocol: Using the RmELA enzymatic solution prepared by the method described in Example 7, the synthesis reaction of Nε-dodecanoyl-L-lysine was carried out. A 200 ml of a reaction solution was prepared so as to give final concentrations of 300 mmol/L dodecanoic acid, 300 mmol/L L-lysine hydrochloride, 0.1 mmol/L ZnSO4, 10% methanol, and 3 U/ml the RmELA enzymatic solution and was stirred at 300 rpm using a 500 ml jar fermenter. The pH was adjusted to be 7.0 using 1 N of NaOH, and the reaction temperature was adjusted to be 55° C.
Nα-dodecanoyl-L-lysine was produced by only 0.06% in terms of yield relative to L-lysine.
For the measurement of lysine, BF-5 and a lysine electrode (manufactured by Oji Scientific Instruments Co., Ltd.) were used. The HPLC analysis was performed with Column YMC-UltraHT Pro C18, 50×2.0 mm I.D. (manufactured by YMC Co., Ltd.), a mobile layer of NaH2PO4 (pH 3.0)/MeOH=3/7, and UV 210 nm.
When the reaction pH was changed from pH 7.0 to pH 6.0, and the synthesis reaction of Nε-dodecanoyl-L-lysine was carried out by a method similar to the above, 96% of the charged L-lysine was consumed after 24 hours (FIG. 7). […] At pH 7.0, dodecanoic acid in the reaction solution was emulsified to give a high viscosity solution. […]

[3] = Storage stability of enzymatic solutions; type: biochemical; settings: stored at 4° C., 15° C. and 25° C.
Protocol: A culture solution of the C. glutamicum expression strain of RmELA acquired by the method described in Example 1, 1-6) was centrifuged to collect the supernatant, which was membrane-sterilized with a 0.45 μm filter to obtain an RmELA enzymatic solution. A WDK010/pPKT-tatABC strain (WO 2010/067871) as a C. glutamicum expression strain of ELA native to Streptomyces mobarensis (SmELA) was cultured and sterilized by a similar procedure to obtain an SmELA enzymatic solution.
These enzymatic solutions were stored at temperatures of 4° C., 15° C., and 25° C., and the transition of enzyme activity was examined. The activity was represented as relative activity (%) with the activity value when the storage started as 100.

[4] = type: biochemical; settings: incubated at 30° C. to 100° C. for 1 hour
Protocol: Using the purified enzyme acquired by the method described in Example 3, the optimum reaction temperature and temperature stability of the enzyme with Nε-acetyl-L-lysine as a substrate were examined.
Subsequently, remaining activity after being incubated at certain temperatures (30° C. to 100° C.) for 1 hour was measured. The activity was represented as relative activity (%) with the activity value before the incubation as 100.

Optimum pH of the enzyme = type: biochemical; settings: 37° C., acetate, Tris-HCl and borate buffers, pH 4.2 to 9.8
Protocol: Using the purified enzyme acquired by the method described in Example 3, the optimum pH and pH stability of the enzyme with Nε-acetyl-L-lysine as a substrate were examined.
Using various kinds of buffers (pH 4.2 to 6.0: acetate buffers, pH 7.2 to 8.8: Tris-HCl buffers, and pH 9.3 to 9.8: borate buffers) at 37° C., activity at various pH was measured. The activity was represented as relative activity (%) with the maximum activity value as 100. The optimum pH of this enzyme was pH 5.0.

[5] = Enzyme activity after heat sterilization of the culture solution; type: biochemical; settings: 75° C. for 30 minutes
Protocol: Whether a C. glutamicum expression strain of RmELA could be sterilized with heat while maintaining the enzyme activity was examined. The culture solution acquired by the method described in Example 1, 1-6) in an amount of 150 μl was dispensed to a PCR tube and was subjected to heat treatment at 75° C. for 30 minutes using a block heater to obtain a heat treatment culture solution. The heat treatment culture solution and the heat treatment culture solution serially diluted (with a dilution rate of ×10^2) with a physiological saline solution (0.85% of NaCl) were applied to a CM2G agar medium (10 g of a yeast extract, 10 g of polypeptone, 5 g of glucose, 5 g of sodium chloride, 0.2 g of DL-methionine, 15 g of agar, pH 7.2, and filled up to 1 L with water) containing 25 mg/l of kanamycin, and the number of formed colonies was counted to examine the number of living bacteria of the RmELA expression strain. As a result, no colony formation was detected. […] When a culture solution without the heat treatment was examined by the same method, the number of living bacteria was 7.0×10^10 cfu/ml.
Subsequently, the culture solution and the heat treatment culture solution explained above were centrifuged individually, the supernatants were collected, and the hydrolysis activity of Nε-acetyl-L-lysine within the supernatants was measured.

Molecule | hydrolysis (degradation) activity of the enzyme for the acyl lysine, in words (RmELA) | Hydrolysis activity (RmELA) [U/mg] | further results
CC(=O)NCCCC[C@H](N)C(=O)O [Nε-Acetyl-L-Lys, Nε-acetyl-L-lysine] | exhibited degradation activity | 17.5 | 
NCCCC[C@H](NC(=O)c1ccccc1)C(=O)O [Nα-Benzoyl-L-Lys, Nα-benzoyl-L-lysine] | did not exhibit hydrolysis activity | 0.0 | 
CC(=O)N[C@@H](CCCCN)C(=O)O [Nα-Acetyl-L-Lys, Nα-acetyl-L-lysine] | did not exhibit hydrolysis activity | 0.0 | 
N[C@@H](CCCCNC(=O)CC[C@H](N)C(=O)O)C(=O)O [Nε-(γGlu)-L-Lys] |  | 41.3 | 
CC(=O)NCCCC[C@@H](N)C(=O)O [Nε-Acetyl-D-Lys, Nε-acetyl-D-lysine] | did not exhibit hydrolysis activity | 0.0 | 
N[C@@H](CCCCNC(=O)c1ccccc1)C(=O)O [Nε-Benzoyl-L-Lys, Nε-benzoyl-L-lysine] | exhibited degradation activity | 90.1 | 
N[C@@H](CCCCNC(=O)[C@@H](N)CCC(=O)O)C(=O)O [Nε-(αGlu)-L-Lys] |  | 36.8 | 
B1 |  |  | charged L-lysine consumed ([1]; 300 mmol/L substrates, 2.1 U/ml, pH 7.0, 50° C., after 23 hours): 80%; consumption rate relative to the charged L-lysine ([1]; substrate 500 mmol/L, after 35 hours): 87%; consumption rate relative to the charged L-lysine ([1]; substrate 750 mmol/L, after 35 hours): 92%; consumption rate relative to the charged L-lysine ([1]; substrate 1,000 mmol/L, after 57 hours): 94%; charged L-lysine consumed ([2]; pH 6.0, 55° C.): 96%; charged L-lysine consumed ([2]; pH 7.0, 55° C.): 98%; transition of enzyme activity during storage [3]: did not decrease in enzyme activity; temperature up to which no decrease in activity was shown [4]: up to 80 °C; optimum pH (Optimum pH of the enzyme): 5.0; optimum pH (Optimum pH of the enzyme; listed as protein having the amino acid sequence of SEQ ID NO: 1): about 5; enzyme activity after heat treatment [5]: no decrease in enzyme activity
